Where two headings read alike, the source gives them in different places.
What was measured:
[1] = Plasma and tissue levels in mice after a single intragastric dose; assay type: in vivo, mouse; conditions: for peak concentration / AUC: mice, 240 mg/kg i.g.; for AUC: 0-120 min
Experimental: Animal experiments were conducted as stipulated by Project Licence 40/2496 granted by the UK Home Office. Experiments were vetted and approved by the Leicester University Animal Welfare Committee and complied with the UKCCCR guidelines for the welfare of animals in experimental neoplasia. […] The vehicle was glycerol formal, and the dose volume approximately 10 ml kg^−1. In the case of DMU 212, the vehicle also contained 10% DMSO. Mice were killed by terminal gaseous anaesthesia at 10, 30, 60 or 120 min postdosing. Blood was collected by cardiac puncture, and plasma was obtained by centrifugation. The liver, kidney, lung, heart, brain and gut were excised, and scrapings were obtained from small intestine and colon. Tissues were snap-frozen (liquid nitrogen) and stored at −80°C until analysis.
Tissues were homogenised (1 : 1 volume to tissue mass ratio) in 50 mM Hepes buffer (Sigma, Poole, UK) using a hand-held glass homogeniser. An aliquot (250 μl) of homogenate, to which an internal standard had been added was vortexed, followed by the addition of acetonitrile (1 ml). After vigorous shaking, mixtures were kept on ice (5–10 min) and centrifuged (2800 g, 10 min, 4°C). The supernatants were dried under a stream of nitrogen and reconstituted in mobile phase (100 μl).
(§1) HPLC analysis was performed using a Varian Prostar HPLC system (Varian, UK) with a Pro-Star 230 solvent delivery system, a Pro-Star 310 UV–Vis detector, a Pro-Star 363 Fluorescence detector, a 410 Varian autosampler and an Ultracarb C18 column (4.6 mm × 250 mm, 5 μm, Phenomenex, UK). The mobile phase consisted of the three components: aqueous ammonium acetate (pH 6.5, 50 mM), propan-2-ol and acetonitrile. […] The flow rate for both methods was 1 ml min^−1.
(§2) The injection volume of samples reconstituted in the mobile phase was 50 μl.
The curves were characterised by regression coefficients of R^2=0.99 or above. […] Therefore, metabolites were not quantitated.
The area under the plasma or tissue concentration vs time curve (AUC) values were calculated using the trapezoidal rule (WinNonlin v.1.1, Scientific Consultants, USA).

[2] = assay type: in vivo, mouse; conditions: agents at 0.2% in the diet for 2 weeks; result not shown
Experimental: ). Both agents were rapidly cleared from blood and tissues within an hour of administration (Figure 3). […] DMU 212 levels reached a peak after 10 min, except in the case of the colon, in which the peak occurred after 30 min. The peak levels for DMU 212 were 5 μM in the plasma and 8, 11, 11, 5, 10, 7600 and 330 nmols g^−1 tissue in the liver, kidney, lung, brain, heart, small intestinal and colonic mucosae, respectively. We performed a preliminary experiment in order to explore whether the difference in gastrointestinal levels would also be observed when the agents are administered with the diet, the route often used in preclinical cancer chemoprevention studies. Agents were admixed with the diet at 0.2% and fed for 2 weeks.

[3] = test system: HT-29 colon cancer cells; assay: Effect of agents on growth of HT-29 cells; assay type: cell-based; conditions: Homo sapiens, read-out: IC50 (cell growth)
Experimental: (§3) Cells were seeded (10^4 per well) in 24-well plates and cultured in DMEM containing Glutamax I (Life Technologies, Paisley, UK) and glucose (4.5 g l^−1) and 10% foetal calf serum (Gibco, Paisley, UK). […] Cells were counted 72, 96, 120, 144 and 168 h postaddition of agents using a Z2 Coulter Particle Count and Size Analyzer (Beckman Coulter, High Wycombe, UK). Control cultures contained the vehicle only. […] The IC50 values inserted in Figure 5 were calculated from the linear portion of the cell number-vs agent concentration curves at the 168 h time point.

[4] = test system: HCA-7 colon cancer cells; assay: Effect of agents on growth of HCA-7 cells; assay type: cell-based; conditions: Homo sapiens, 168 h time point, cell counts
Experimental: as §3

[5] = test system: HCA-7 and HT-29 colon cancer cells; assay: Effect of agents on growth of colon cancer cells, range stated over both lines; assay type: cell-based; conditions: Homo sapiens, 168 h, read-out: IC50 values (cell growth), range over both agents and both cell lines
Experimental: as §3

[6] = Incubation with mouse liver microsomes; assay type: in vitro ADME; conditions: mouse liver microsomes 0.5 mg protein ml^−1, NADPH 1 mM, substrate 1 mM, 20 min, 37°C
Experimental: Microsomes were prepared by differential centrifugation of mouse liver homogenate first at 9 × 10^3 g (20 min, 4°C), then at 10^5 g (1 h) in a Beckman L-8-60 ultracentrifuge (Beckman Coulter UK Ltd, High Wycombe, Buckinghamshire, UK). The microsomal pellet was suspended in Tris buffer (50 mM, pH 7.4), recentrifuged at 10^5 g (1 h) and resuspended in Tris buffer. Liver microsomes from two to four mice were pooled. […] The addition of one volume of ice-cold methanol terminated the reaction. The mixture was vortexed (30 s), centrifuged (3 min, 13 400 g) and the supernatant was collected and analysed by HPLC.
as §1, §2

[7] = Metabolite characterisation in plasma and tissues of dosed mice; assay type: in vivo, mouse; conditions: 240 mg/kg i.g., HPLC cochromatography and mass spectrometry
Experimental: The vehicle was glycerol formal, and the dose volume approximately 10 ml kg^−1. […] Mice were killed by terminal gaseous anaesthesia at 10, 30, 60 or 120 min postdosing. Blood was collected by cardiac puncture, and plasma was obtained by centrifugation. The liver, kidney, lung, heart, brain and gut were excised, and scrapings were obtained from small intestine and colon. Tissues were snap-frozen (liquid nitrogen) and stored at −80°C until analysis.
Tissues were homogenised (1 : 1 volume to tissue mass ratio) in 50 mM Hepes buffer (Sigma, Poole, UK) using a hand-held glass homogeniser. […] After vigorous shaking, mixtures were kept on ice (5–10 min) and centrifuged (2800 g, 10 min, 4°C). The supernatants were dried under a stream of nitrogen and reconstituted in mobile phase (100 μl).
HPLC analysis was performed using a Varian Prostar HPLC system (Varian, UK) with a Pro-Star 230 solvent delivery system, a Pro-Star 310 UV–Vis detector, a Pro-Star 363 Fluorescence detector, a 410 Varian autosampler and an Ultracarb C18 column (4.6 mm × 250 mm, 5 μm, Phenomenex, UK). […]
Mass spectrometry was performed using a Quattro Bio-Q tandem quadrupole mass spectrometer upgraded to Quattro MK II specifications (Micromass, Manchester, UK) with a pneumatically assisted electrospray interface. Samples were analysed in positive ion mode.

[8] = test system: transformed human lung-derived cells; set-up: method as in Lu et al, 2001; conditions: ref Lu et al, 2001; cited from earlier work
[9] = rats, ref Verschoyle et al, unpublished, cited from earlier work
[10] = plasma and tissues (for DMU 212 except colon), 10 min was the first time point

Row | Compound | peak concentration ([1]; brain) | AUC ([1]; brain) | peak concentration ([1]; colonic mucosa) | AUC ([1]; colonic mucosa) | peak concentration ([1]; heart) | AUC ([1]; heart) | AUC ([1]; intestinal mucosa) | peak concentration ([1]; kidney) | AUC ([1]; kidney) | peak concentration ([1]; liver) | AUC ([1]; liver) | peak concentration ([1]; lung) | AUC ([1]; lung) | time at which levels peaked [1, 10] | peak concentration ([1]; plasma) | AUC ([1]; plasma) | peak concentration ([1]; small intestinal mucosa) | microsomal biotransformation (HPLC peaks besides parent) [6] | further results
1 | COc1ccc(C=Cc2cc(OC)c(OC)c(OC)c2)cc1 [DMU 212, 3,4,5,4′-tetramethoxystilbene] | 5 nmols g^−1 tissue | 193 nmoles ml^−1 or g^−1 min | 330 nmols g^−1 tissue | 19 256 nmoles ml^−1 or g^−1 min | 10 nmols g^−1 tissue | 750 nmoles ml^−1 or g^−1 min | 369 315 nmoles ml^−1 or g^−1 min | 11 nmols g^−1 tissue | 566 nmoles ml^−1 or g^−1 min | 8 nmols g^−1 tissue | 432 nmoles ml^−1 or g^−1 min | 11 nmols g^−1 tissue | 778 nmoles ml^−1 or g^−1 min | 10 min | 5 µM | 246 nmoles ml^−1 or g^−1 min | 7600 nmols g^−1 tissue | afforded peaks in addition to that of parent DMU 212 | time at which levels peaked ([1]; colon): 30 min; factor by which peak level exceeded the concentration arresting transformed lung cell growth (10 μM) ([1]; small intestinal mucosa): 760; colonic levels of DMU 212 relative to those of resveratrol [2]: two-fold; IC50 ([3]; HT-29, 168 h): 11.3 ± 1.1 µM; IC50 [4]: 6 ± 0.2 µM; IC50 [5]: 6 to 26 µM; metabolism in mice in vivo [7]: underwent metabolic hydroxylation or single and double O-demethylation; concentration required to cause significant arrest of transformed lung cell growth in vitro [8]: 10 µM; toxicity ([9]; single doses of up to 40 mg kg^−1 i.v.): devoid of any toxicity; toxicity ([9]; single doses of up to 400 mg kg^−1 p.o.): devoid of any toxicity
2 | Oc1ccc(/C=C/c2cc(O)cc(O)c2)cc1 [resveratrol, trans-3,5,4′-trihydroxystilbene, reference compound] | 1.2 nmols g^−1 tissue | 103 nmoles ml^−1 or g^−1 min | 30 nmols g^−1 tissue | 2869 nmoles ml^−1 or g^−1 min | 75 nmols g^−1 tissue | 2072 nmoles ml^−1 or g^−1 min | 36 690 nmoles ml^−1 or g^−1 min | 16 nmols g^−1 tissue | 785 nmoles ml^−1 or g^−1 min | 51 nmols g^−1 tissue | 2150 nmoles ml^−1 or g^−1 min | 50 nmols g^−1 tissue | 1123 nmoles ml^−1 or g^−1 min | 10 min | 32 µM | 863 nmoles ml^−1 or g^−1 min | 960 nmols g^−1 tissue | did not yield any peak in addition to that of the parent substrate | IC50 ([3]; HT-29 cells, 168 h time point, cell counts): 19.9 ± 0.3 µM; IC50 ([5]; HCA-7 and HT-29 cells): 6 to 26 µM
